# Experimental data published in patent US7211572B2 (Japan Tobacco Inc., priority 2003, dated 2007).
# Target: T1, HIV integrase (Human immunodeficiency virus type 1 group M subtype B, UniProt P12497, F1332H)
# T1 construct: HIV integrase full length gene; made in house; host or cells: Escherichia coli BL21(DE3), plasmid pET21a-INH
# Assay: Determination of enzyme (HIV integrase) inhibitory activity
# Format: biochemical
# Details: recombinant HIV integrase (F185H), strand transfer ELISA, absorbance at 450 nm
# Excerpt: The following explains evaluation methods of the HIV integrase inhibitory activity of the compound of the present invention.
# (i) Construction of Recombinant Integrase Gene Expression System
# The 185th phenylalanine of HIV integrase full length gene (J. Virol., 67, 425–437 (1993)) was substituted by histidine and inserted into the restriction enzyme NdeI and XhoI sites of plasmid pET21a(+) (Novagen), whereby an integrase expression vector pET21a-INH was constructed.
# (ii) Production and Purification of Integrase Protein
# Escherichia coli recombinant BL21(DE3) transformed with plasmid pET21a-INH obtained in (i) was shake cultured at 37° C. in a liquid medium containing ampicillin. When the culture reached the logarithmic growth phase, isopropyl-β-D-thiogalactopyranoside was added to promote expression of integrase gene. The culture was continued for 3 hr to promote accumulation of the integrase protein. The recombinant E. coli was collected in pellets by centrifugal separation and preserved at −80° C.
# The E. coli was suspended in Lysis buffer (20 mM HEPES (pH 7.5), 5 mM DTT, 10 mM CHAPS, 10% glycerol) containing 1M sodium chloride and subjected to repeat pressurization and depressurization for rupture, and centrifugal separation at 4° C., 40,000×g, 60 min to recover a water-soluble fraction (supernatant). This was diluted 10-fold with Lysis buffer free of sodium chloride, mixed with SP-Sepharose (Pharmacia Corporation) and stirred at 4° C. for 30 min to allow adsorption of integrase protein to the resin. The resin was washed with Lysis buffer containing 100 mM sodium chloride and the integrase protein was eluted with Lysis buffer containing 1M sodium chloride.
# The eluted integrase protein solution was applied to a Superdex 75 (Pharmacia Corporation) column for gel filtration. The protein was eluted with Lysis buffer containing 1M sodium chloride.
# The obtained fractions of the integrase protein were collected and preserved at −80° C.
# (iii) Preparation of DNA Solution
# The following DNA synthesized by Greiner was dissolved in TE buffer (10 mM Tris-hydrochloric acid (pH 8.0), 1 mM EDTA) and mixed with donor DNA, target DNA, and each complementary strand (+ and − strands) to 1 μM. The mixture was heated at 95° C. for 5 min, 80° C. for 10 min, 70° C. for 10 min, 60° C. for 10 min, 50° C. for 10 min and 40° C. for 10 min and preserved at 25° C. to give a double stranded DNA, which was used for the test.
# Donor DNA (− strand having biotin attached to the 5′ terminal)
# (iv) Determination of Enzyme (HIV Integrase) Inhibitory Activity
# The donor DNA was diluted with TE buffer to 10 nM, of which 50 μl was added to each well of streptavidin-coated microtiter plate (Roche) and allowed to adsorb at 37° C. for 60 min. The DNA was washed with phosphate buffer (Dulbecco PBS, Sanko Junyaku Co., Ltd.) containing 0.1% Tween 20 and phosphate buffer. Then, a reaction mixture (70 μl) having the following composition, a test substance (10 μl) diluted with the reaction mixture and 100 μg/ml integrase protein (10 μl) were added to each well and reacted at 37° C. for 60 min.
# Composition of the reaction mixture: 30 mM MOPS (3-morpholinopropanesulfonic acid), 5 mM magnesium chloride, 3 mM DTT (dithiothreitol), 0.1 mg/ml BSA (bovine serum albumin), 5% glycerol, 10% DMSO (dimethyl sulfoxide), 0.01% Tween 20.
# Then, 50 nM target DNA (10 μl) was added, reacted at 37° C. for 10 min and washed with phosphate buffer containing 0.1% Tween 20 to stop the reaction.
# Then, 100 mU/ml peroxidase labeled anti-digoxigenin antibody solution (Roche, 100 μl) was added, and the mixture was reacted at 30° C. for 60 min, followed by washing with phosphate buffer containing 0.1% Tween 20.
# A peroxidase color solution (Bio Rad, 100 μl) was added and allowed to react at room temperature for 4 min. The color reaction was stopped by adding 1N sulfuric acid (100 μl). The absorbance at 450 nm was measured. […]
row,SMILES,IC50 [µM]
1,"CS(=O)(=O)Cc1cc(=O)c(O)c2n1CCN(Cc1ccc(Cl)c(Cl)c1)C2=O [Example 31, 2-(3,4-dichlorobenzyl)-9-hydroxy-6-methanesulfonylmethyl-3,4-dihydro-2H-pyrido[1,2-a]pyrazine-1,8-dione]",0.01 to 0.1
2,"CS(=O)(=O)CCC1CN(Cc2ccc(Cl)c(Cl)c2)C(=O)c2c(O)c(=O)ccn21 (centres unmarked) [Example 32, 2-(3,4-dichlorobenzyl)-9-hydroxy-4-(2-methanesulfonylethyl)-3,4-dihydro-2H-pyrido[1,2-a]pyrazine-1,8-dione]",0.01 to 0.1
3,"CSCCC1CN(Cc2ccc(Cl)c(Cl)c2)C(=O)c2c(O)c(=O)ccn21 (centres unmarked) [Example 33, 2-(3,4-dichlorobenzyl)-9-hydroxy-4-(2-methylsulfanylethyl)-3,4-dihydro-2H-pyrido[1,2-a]pyrazine-1,8-dione]",0.01 to 0.1
4,"COC(=O)c1cc(=O)c(O)c2n1CCN(Cc1ccc(Cl)c(Cl)c1)C2=O [Example 34, methyl 2-(3,4-dichlorobenzyl)-9-hydroxy-1,8-dioxo-1,3,4,8-tetrahydro-2H-pyrido[1,2-a]pyrazine-6-carboxylate]",0.01 to 0.1
5,"CC(=O)c1cc(=O)c(O)c2n1CCN(Cc1ccc(Cl)c(Cl)c1)C2=O [Example 35, 6-acetyl-2-(3,4-dichlorobenzyl)-9-hydroxy-3,4-dihydro-2H-pyrido[1,2-a]pyrazine-1,8-dione]",0.01 to 0.1
6,"CC(C)SCc1cc(=O)c(O)c2n1CCN(Cc1ccc(Cl)c(Cl)c1)C2=O [Example 36, 2-(3,4-dichlorobenzyl)-9-hydroxy-6-isopropylsulfanylmethyl-3,4-dihydro-2H-pyrido[1,2-a]pyrazine-1,8-dione]",0.01 to 0.1
7,"CC(C)S(=O)(=O)Cc1cc(=O)c(O)c2n1CCN(Cc1ccc(Cl)c(Cl)c1)C2=O [Example 37, 2-(3,4-dichlorobenzyl)-9-hydroxy-6-isopropylsulfonylmethyl-3,4-dihydro-2H-pyrido[1,2-a]pyrazine-1,8-dione]",0.01 to 0.1
8,"CC(C)OCc1cc(=O)c(O)c2n1CCN(Cc1ccc(Cl)c(Cl)c1)C2=O [Example 38, 2-(3,4-dichlorobenzyl)-9-hydroxy-6-isopropoxymethyl-3,4-dihydro-2H-pyrido[1,2-a]pyrazine-1,8-dione]",0.01 to 0.1
9,"CC(C)COCc1cc(=O)c(O)c2n1CCN(Cc1ccc(Cl)c(Cl)c1)C2=O [Example 39, 2-(3,4-dichlorobenzyl)-9-hydroxy-6-isobutoxymethyl-3,4-dihydro-2H-pyrido[1,2-a]pyrazine-1,8-dione]",0.01 to 0.1
10,"CC(O)c1cc(=O)c(O)c2n1CCN(Cc1ccc(Cl)c(Cl)c1)C2=O (centres unmarked) [Example 40, 2-(3,4-dichlorobenzyl)-9-hydroxy-6-(1-hydroxyethyl)-3,4-dihydro-2H-pyrido[1,2-a]pyrazine-1,8-dione]",0.01 to 0.1
11,"O=C1c2c(O)c(=O)cc(COc3ccccc3)n2CCN1Cc1ccc(Cl)c(Cl)c1 [Example 41, 2-(3,4-dichlorobenzyl)-9-hydroxy-6-phenoxymethyl-3,4-dihydro-2H-pyrido[1,2-a]pyrazine-1,8-dione]",0.01 to 0.1
12,"O=C1c2c(O)c(=O)ccn2CCN1Cc1ccc(F)cc1 [Example 42, 2-(4-fluorobenzyl)-9-hydroxy-3,4-dihydro-2H-pyrido[1,2-a]pyrazine-1,8-dione]",0.01 to 0.1
13,"O=C1c2c(O)c(=O)ccn2CCN1Cc1cccc(Cl)c1 [Example 43, 2-(3-chlorobenzyl)-9-hydroxy-3,4-dihydro-2H-pyrido[1,2-a]pyrazine-1,8-dione]",0.01 to 0.1
14,"O=C1c2c(O)c(=O)ccn2CCN1Cc1ccccc1 [Example 44, 2-benzyl-9-hydroxy-3,4-dihydro-2H-pyrido[1,2-a]pyrazine-1,8-dione]",0.1 to 1
15,"O=C1c2c(O)c(=O)ccn2CCN1Cc1ccc(Cl)cc1 [Example 45, 2-(4-chlorobenzyl)-9-hydroxy-3,4-dihydro-2H-pyrido[1,2-a]pyrazine-1,8-dione]",0.01 to 0.1
16,"CC(C)c1cc(=O)c(O)c2n1CCN(Cc1ccc(Cl)c(Cl)c1)C2=O [Example 46, 2-(3,4-dichlorobenzyl)-9-hydroxy-6-isopropyl-3,4-dihydro-2H-pyrido[1,2-a]pyrazine-1,8-dione]",0.01 to 0.1
17,"CC(C)C(=O)c1cc(=O)c(O)c2n1CCN(Cc1ccc(Cl)c(Cl)c1)C2=O [Example 47, 2-(3,4-dichlorobenzyl)-9-hydroxy-6-isobutyryl-3,4-dihydro-2H-pyrido[1,2-a]pyrazine-1,8-dione]",< 0.01
18,"O=Cc1cc(=O)c(O)c2n1CCN(Cc1ccc(Cl)c(Cl)c1)C2=O [Example 48, 2-(3,4-dichlorobenzyl)-9-hydroxy-1,8-dioxo-1,3,4,8-tetrahydro-2H-pyrido[1,2-a]pyrazine-6-carbaldehyde]",0.01 to 0.1
19,"O=C1c2c(O)c(=O)cc(-c3ccccc3)n2CCN1Cc1ccc(Cl)c(Cl)c1 [Example 49, 2-(3,4-dichlorobenzyl)-9-hydroxy-6-phenyl-3,4-dihydro-2H-pyrido[1,2-a]pyrazine-1,8-dione]",0.01 to 0.1
20,"O=C1c2c(O)c(=O)ccn2CCN1CCCc1ccccc1 [Example 50, 9-hydroxy-2-(3-phenylpropyl)-3,4-dihydro-2H-pyrido[1,2-a]pyrazine-1,8-dione]",0.01 to 0.1
21,"O=C1c2c(O)c(=O)ccn2CCN1Cc1cccc(Cl)c1F [Example 51, 2-(3-chloro-2-fluorobenzyl)-9-hydroxy-3,4-dihydro-2H-pyrido[1,2-a]pyrazine-1,8-dione]",0.01 to 0.1
22,"CC(C)C(O)c1cc(=O)c(O)c2n1CCN(Cc1ccc(Cl)c(Cl)c1)C2=O (centres unmarked) [Example 53, 2-(3,4-dichlorobenzyl)-9-hydroxy-6-(1-hydroxy-2-methylpropyl)-3,4-dihydro-2H-pyrido[1,2-a]pyrazine-1,8-dione]",0.01 to 0.1
23,"CC(C)Cc1cc(=O)c(O)c2n1CCN(Cc1ccc(Cl)c(Cl)c1)C2=O [Example 54, 2-(3,4-dichlorobenzyl)-9-hydroxy-6-isobutyl-3,4-dihydro-2H-pyrido[1,2-a]pyrazine-1,8-dione]",0.01 to 0.1
24,"NC(=O)c1cc(=O)c(O)c2n1CCN(Cc1ccc(Cl)c(Cl)c1)C2=O [Example 55, 2-(3,4-dichlorobenzyl)-9-hydroxy-1,8-dioxo-1,3,4,8-tetrahydro-2H-pyrido[1,2-a]pyrazine-6-carboxamide]",0.01 to 0.1
25,"CNC(=O)c1cc(=O)c(O)c2n1CCN(Cc1ccc(Cl)c(Cl)c1)C2=O [Example 56, N-methyl-2-(3,4-dichlorobenzyl)-9-hydroxy-1,8-dioxo-1,3,4,8-tetrahydro-2H-pyrido[1,2-a]pyrazine-6-carboxamide]",0.01 to 0.1
26,"O=C1c2c(O)c(=O)ccn2CCN1Cc1ccc(Cl)c(F)c1 [Example 57, 2-(4-chloro-3-fluorobenzyl)-9-hydroxy-3,4-dihydro-2H-pyrido[1,2-a]pyrazine-1,8-dione]",0.01 to 0.1
27,"O=C(c1ccccc1)c1cc(=O)c(O)c2n1CCN(Cc1ccc(Cl)c(Cl)c1)C2=O [Example 58, 6-benzoyl-2-(3,4-dichlorobenzyl)-9-hydroxy-3,4-dihydro-2H-pyrido[1,2-a]pyrazine-1,8-dione]",< 0.01
28,"CCC(=O)c1cc(=O)c(O)c2n1CCN(Cc1ccc(Cl)c(Cl)c1)C2=O [Example 59, 2-(3,4-dichlorobenzyl)-9-hydroxy-6-propionyl-3,4-dihydro-2H-pyrido[1,2-a]pyrazine-1,8-dione]",< 0.01
29,"Cc1cc(=O)c(O)c2n1CCN(Cc1ccc(Cl)c(Cl)c1)C2=O [Example 60, 2-(3,4-dichlorobenzyl)-9-hydroxy-6-methyl-3,4-dihydro-2H-pyrido[1,2-a]pyrazine-1,8-dione]",0.01 to 0.1
